Legend:
[1] = system: Tat-induced HIV genome activation in J-Lat 6.3 cells; experiment: Tat-induced HIV genome activation in J-Lat 6.3 cells (GFP, FACS); format: cell-based, human; conditions: 20 μM, 10 nM PMA, 17 hr
Experimental: FIG. 12, related to FIG. 5. SEC inhibitors block transcription elongation in SEC-dependent rapid response models. […] (B) Gene Ontology analysis of the 136 identified heat shock-induced genes in HCT-116 cells. (C) Workflow of Tat-induced HIV genome activation in J-Lat 6.3 cells. J-Lat 6.3 cells contain an integrated copy of the HIV genome that has GFP replacing HIV nef and could be activated by Phorbol-12-Myristate-13-Acetate (PMA). J-Lat 6.3 cells were treated with vehicle or 20 μM SEC inhibitor along with PMA to activate the HIV genome transcription, which could be monitored by flow cytometry analysis. (D-E) SEC inhibitors block Tat-induced HIV genome activation in J-Lat 6.3 cells. (D) FACS analysis of J-Lat 6.3 cells treated with 10 nM PMA and SEC inhibitors for 17 hr. […] Unpaired two-way ANOVA was used to compare the groups between DMSO and SEC inhibitors. ***, p<0.001. Data are represented as Mean+/−SD. […]
Induction of J-Lat 6.3 Cells. […] Cells were washed in PBS and GFP fluorescence was measured with a FACSVantage instrument (Becton Dickinson, San Jose, Calif.). […] A two-parameter analysis to distinguish GFP-derived fluorescence from background fluorescence was used: GFP was measured in FL1 and cellular autofluorescence was monitored in FL2. The percentage of GFP-positive cells was calculated based on live cells (Jordan et al., 2003).

H2171 and SW1271 cells = experiment: CellTiter-Glo cell proliferation of small cell lung cancer cells; format: cell-based, human; conditions: 3 days, increasing concentrations
Source text: FIG. 6. SEC disruption targets MYC and MYC target genes. (A-B) Venn diagram of deregulated genes in 293T cells by KL-1 and KL-2. […] (C) Heat map showing the expression changes in response to SEC inhibitors, with differentially expressed canonical MYC targets, RNA splicing factors, and core SNRP assembly genes highlighted. […] Each cluster is represented by different colors and a circle node denotes each enriched term. (E) MA plots of RNA splicing and Hallmark MYC target genes in KL-2 treated, AFF1 and AFF4 co-depletion, and ELL2-depleted cells. […] The MYC genes, the PRMT5 gene, and genes encoding SEC components are denoted as red squares. (F) Western analysis of MYC protein levels in the MYC lowly expressed small cell lung cancer cell line […] and MYC-amplified small cell lung cancer cell line H2171. (G) Gained SEC occupancy at the MYC binding sites in MYC highly expressed H2171 cells. Genome browser tracks of MYC and SEC occupancy around the PRMT5 gene in SW1271 and H2171 cells are shown. (H) ChIP-seq analysis of MYC binding peaks in SW1271 and H2171 cells. […] The SEC and MYC peaks were determined by MACS with a p-value cutoff at 1E-5. […] Both cell lines were treated with increasing concentrations of KL-1 and KL-2 for 3 days and the cell proliferation was measured with CellTiter-Glo luminescent cell viability assay (Promega) (n=3-6).

How did the “GFP expression after PMA induction” value [1] turn out when COc1cccc(C(=O)CC(=O)C(=O)Nc2cc(Cl)ccc2C)c1 [KL-1, N-(5-chloro-2-methylphenyl)-4-oxo-4-(3-methoxyphenyl)-2-oxobutanamide] was run?
The value was “strong inhibition of GFP expression”.

And the “sensitivity of high MYC expressing H2171 cells versus low MYC expressing SW1271 cells” value (H2171 and SW1271 cells)?
Its value is “more sensitive”.
